In patent US8329755B2, “Methods for treating retroviral infections” (Roche Palo Alto LLC, priority 2004, dated 2012):

melting point	Compound
165.8 to 168.1 °C	Cc1ccc(CC(=O)Nc2ccc(S(N)(=O)=O)cc2)cc1Oc1cc(F)cc(C#N)c1 [Compound I-11, 2-[3-(3-Cyano-5-fluoro-phenoxy)-4-methyl-phenyl]-N-(4-sulfamoyl-phenyl)-acetamide]
186.9 to 187.6 °C	CCCC(=O)N(C)S(=O)(=O)c1ccc(NC(=O)Cc2ccc(Cl)c(Oc3cc(Cl)cc(C#N)c3)c2F)c(Cl)c1 [Compound I-139, N-[4-(Butyryl-methyl-sulfamoyl)-2-chloro-phenyl]-2-[4-chloro-3-(3-chloro-5-cyano-phenoxy)-2-fluoro-phenyl]-acetamide]
199.1 to 200 °C	CNS(=O)(=O)c1ccc(NC(=O)Cc2ccc(Cl)c(Oc3cc(Cl)cc(C#N)c3)c2F)c(Cl)c1 [Compound I-168, 2-[4-Chloro-3-(3-chloro-5-cyano-phenoxy)-2-fluoro-phenyl]-N-(2-chloro-4-methylsulfamoyl-phenyl)-acetamide]
218.3 to 221.4 °C	COc1ccc(CC(=O)Nc2ccc(S(N)(=O)=O)cc2)cc1Oc1cc(Cl)cc(C#N)c1 [Compound I-57, 2-[3-(3-Chloro-5-cyano-phenoxy)-4-methoxy-phenyl]-N-(4-sulfamoyl-phenyl)-acetamide]
223.9 to 225 °C	Cc1cc(S(N)(=O)=O)ccc1NC(=O)Cc1ccc(Br)c(Oc2cc(C#N)cc(C(F)F)c2)c1F [Compound I-169, 2-[4-Bromo-3-(3-cyano-5-difluoromethyl-phenoxy)-2-fluoro-phenyl]-N-(2-methyl-4-sulfamoyl-phenyl)-acetamide]
210.3 to 211.6 °C	Cc1cc(CC(=O)Nc2ccc(S(N)(=O)=O)cc2C)cc(C(=O)c2cccc(Cl)c2)c1 [Compound I-260, 2-[3-(3-Chloro-benzoyl)-5-methyl-phenyl]-N-(2-methyl-4-sulfamoyl-phenyl)-acetamide]
230.1 to 230.7 °C	Cc1cc(C#N)cc(Oc2c(Cl)ccc(CC(=O)Nc3ccc(S(N)(=O)=O)cc3C)c2F)n1 [Compound I-124, 2-[4-Chloro-3-(4-cyano-6-methyl-pyridin-2-yloxy)-2-fluoro-phenyl]-N-(2-methyl-4-sulfamoyl-phenyl)-acetamide]
151.7 to 152.3 °C	COCC(=O)NS(=O)(=O)c1ccc(NC(=O)Cc2ccc(Cl)c(Oc3cc(Cl)cc(C#N)c3)c2F)c(Cl)c1.[Na]
155.6 to 156.6 °C	CSCCNS(=O)(=O)c1ccc(NC(=O)Cc2ccc(C)c(Oc3cc(Cl)cc(C#N)c3)c2)c(C)c1 [Compound I-130, 2-[3-(3-Chloro-5-cyano-phenoxy)-4-methyl-phenyl]-N-[2-methyl-4-(2-methylsulfanyl-ethylsulfamoyl)-phenyl]-acetamide]

More lines, now with the values behind:

Compound	melting point
NS(=O)(=O)c1ccc(NC(=O)Cc2ccc(Cl)c(Sc3cc(Cl)ccc3Br)c2)cc1 [Compound I-243, 2-[3-(2-Bromo-5-chloro-phenylsulfanyl)-4-chloro-phenyl]-N-(4-sulfamoyl-phenyl)-acetamide]	220 to 222.3 °C
CCc1ccc(CC(=O)Nc2ccccc2Cl)cc1Oc1cc(Cl)cc(Br)c1Cl [Compound I-37, 2-[3-(3-Bromo-2,5-dichloro-phenoxy)-4-ethyl-phenyl]-N-(2-chloro-phenyl)-acetamide]	146.5 to 147.6 °C
CCc1ccc(CC(=O)Nc2ccc(S(N)(=O)=O)cc2)cc1Oc1cc(Cl)cc(Br)c1Cl [Compound I-35, 2-[3-(3-Bromo-2,5-dichloro-phenoxy)-4-ethyl-phenyl]-N-(4-sulfamoyl-phenyl)-acetamide]	206.9 to 209.9 °C
Cc1cc(CC(=O)Nc2ccc(S(N)(=O)=O)cc2)cc(C(=O)c2cc(Cl)cc(Cl)c2)c1 [Compound I-269, 2-[3-(3,5-Dichloro-benzoyl)-5-methyl-phenyl]-N-(4-sulfamoyl-phenyl)-acetamide]	226 to 227.9 °C
Cc1cc(C(=O)CN2CCN(C)CC2)ccc1NC(=O)Cc1ccc(C)c(Oc2cc(Cl)cc(C#N)c2)c1 [Compound I-159, 2-[3-(3-Chloro-5-cyano-phenoxy)-4-methyl-phenyl]-N-{2-methyl-4-[2-(4-methyl-piperazin-1-yl)-acetyl]-phenyl}-acetamide]	62.3 to 64.1 °C
N#Cc1cc(C#N)cc(Oc2cc(CC(=O)Nc3ccccc3)ccc2Cl)c1 [Compound I-211, 2-[4-Chloro-3-(3,5-dicyano-phenoxy)-phenyl]-N-phenyl-acetamide]	199 to 201.9 °C
CCc1ccc(CC(=O)Nc2ccc(S(N)(=O)=O)cc2)cc1Oc1cc(Br)cc(F)c1Cl [Compound I-39, 2-[3-(5-Bromo-2-chloro-3-fluoro-phenoxy)-4-ethyl-phenyl]-N-(4-sulfamoyl-phenyl)-acetamide]	209.9 to 211.1 °C
